Assay results: PubChem BioAssay (NCI)
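Step 1: Grow cells in 96-well plates. Step 2: Expose to compound for 48 hours at 5 concentrations. Step 3: Interpolate endpoints linearly; if unreached, use highest concentration. The concentration for 50% growth inhibition is given as GI50. The concentration for full growth arrest is given as TGI.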

How the values were obtained:
Assay in all cases: NCI tumour cell line growth inhibition, 48 h
MDA-MB-435 = tested on: MDA-MB-435
HCC-2998 colon = tested on: HCC-2998 colon
OVCAR-5 ovarian = tested on: OVCAR-5 ovarian
ACHN renal = tested on: ACHN renal
SK-OV-3 ovarian = tested on: SK-OV-3 ovarian
NCI/ADR-RES ovarian = tested on: NCI/ADR-RES ovarian
EKVX NSCLC = tested on: EKVX NSCLC
TK-10 renal = tested on: TK-10 renal
CAKI-1 renal = tested on: CAKI-1 renal
RPMI-8226 leukemia = tested on: RPMI-8226 leukemia
KM12 colon = tested on: KM12 colon
UACC-257 melanoma = tested on: UACC-257 melanoma
HS 578T breast = tested on: HS 578T breast
OVCAR-8 ovarian = tested on: OVCAR-8 ovarian
SN12C renal = tested on: SN12C renal
NCI-H460 lung = tested on: NCI-H460 lung
HOP-62 NSCLC = tested on: HOP-62 NSCLC
MOLT-4 leukemia = tested on: MOLT-4 leukemia
NCI-H23 lung = tested on: NCI-H23 lung
SF-539 CNS = tested on: SF-539 CNS
U251 CNS = tested on: U251 CNS
HCT-15 colon = tested on: HCT-15 colon
MALME-3M melanoma = tested on: MALME-3M melanoma
BT-549 breast = tested on: BT-549 breast
OVCAR-4 ovarian = tested on: OVCAR-4 ovarian
CCRF-CEM leukemia = tested on: CCRF-CEM leukemia
A498 renal = tested on: A498 renal
IGROV1 ovarian = tested on: IGROV1 ovarian
SK-MEL-28 melanoma = tested on: SK-MEL-28 melanoma
PC-3 prostate = tested on: PC-3 prostate
SNB-19 CNS = tested on: SNB-19 CNS
SR leukemia = tested on: SR leukemia
786-0 renal = tested on: 786-0 renal
M14 melanoma = tested on: M14 melanoma
NCI-H522 lung = tested on: NCI-H522 lung
UO-31 renal = tested on: UO-31 renal
SK-MEL-5 melanoma = tested on: SK-MEL-5 melanoma
HOP-92 NSCLC = tested on: HOP-92 NSCLC
MDA-MB-231 breast = tested on: MDA-MB-231 breast
LOX IMVI melanoma = tested on: LOX IMVI melanoma
SF-268 CNS = tested on: SF-268 CNS
A549 NSCLC = tested on: A549 NSCLC
SW-620 colon = tested on: SW-620 colon
HT29 colon = tested on: HT29 colon
MCF7 breast = tested on: MCF7 breast
UACC-62 melanoma = tested on: UACC-62 melanoma
COLO 205 colon = tested on: COLO 205 colon

## COc1cccc(-c2cc(=O)c3cc(NC(C)=O)ccc3[nH]2)c1
MDA-MB-435
  TGI: 17.1 µM
HCC-2998 colon
  TGI: > 100 µM
OVCAR-5 ovarian
  TGI: > 100 µM
ACHN renal
  TGI: > 100 µM
SK-OV-3 ovarian
  TGI: > 100 µM
NCI/ADR-RES ovarian
  TGI: > 100 µM
EKVX NSCLC
  TGI: > 100 µM
TK-10 renal
  TGI: > 100 µM
CAKI-1 renal
  TGI: > 100 µM
RPMI-8226 leukemia
  TGI: 96.2 µM
KM12 colon
  TGI: > 100 µM
UACC-257 melanoma
  TGI: > 100 µM
HS 578T breast
  TGI: 8.35 µM
OVCAR-8 ovarian
  TGI: > 100 µM
SN12C renal
  TGI: > 100 µM
NCI-H460 lung
  TGI: > 100 µM
HOP-62 NSCLC
  TGI: > 100 µM
MOLT-4 leukemia
  TGI: > 100 µM
NCI-H23 lung
  TGI: > 100 µM
SF-539 CNS
  TGI: 44.7 µM
U251 CNS
  TGI: > 100 µM
HCT-15 colon
  TGI: > 100 µM
MALME-3M melanoma
  TGI: > 100 µM
BT-549 breast
  TGI: > 100 µM
OVCAR-4 ovarian
  GI50: 19.6 µM
  TGI: > 100 µM
CCRF-CEM leukemia
  TGI: 9.27 µM
A498 renal
  TGI: 61 µM
IGROV1 ovarian
  TGI: > 100 µM
SK-MEL-28 melanoma
  TGI: > 100 µM
PC-3 prostate
  TGI: > 100 µM
SNB-19 CNS
  TGI: > 100 µM
SR leukemia
  TGI: 6 µM
786-0 renal
  TGI: > 100 µM
M14 melanoma
  TGI: > 100 µM
NCI-H522 lung
  TGI: > 100 µM
UO-31 renal
  TGI: > 100 µM
SK-MEL-5 melanoma
  TGI: 56 µM
HOP-92 NSCLC
  TGI: > 100 µM
MDA-MB-231 breast
  TGI: > 100 µM
LOX IMVI melanoma
  TGI: > 100 µM
SF-268 CNS
  TGI: > 100 µM
A549 NSCLC
  TGI: > 100 µM
SW-620 colon
  TGI: > 100 µM
HT29 colon
  TGI: > 100 µM
MCF7 breast
  TGI: > 100 µM
UACC-62 melanoma
  TGI: > 100 µM
COLO 205 colon
  TGI: > 100 µM
